Laboratory results reported in patent publication US20220211868A1, “NANOPARTICLES COMPRISING NON-CLASSICAL MHC AND USES THEREOF” (UTI Limited Partnership, priority 2019, published 2022).
Entries after “also recorded” stand apart in the source; their conditions may differ.

Key:
[1] = tested on: spontaneous PBC-like disease in NOD.c3c4 mice; experiment: Treatment of spontaneous PBC-like disease in NOD.c3c4 mice; format: in vivo, mouse; settings: FIG. 2
Text: FIG. 2 illustrates the effect of treatment with αGalCer (KRN7000)/CD1d-coated NPs vs soluble KRN7000 or uncoated NPs on readouts of PBC in NOD.c3c4 mice. CBD, Common Bile Duct.

iNKT cells = experiment: Flow cytometry of iNKT cells (αGalCer/CD1d tetramer stained) from treated NOD.c3c4 mice; format: in vivo, mouse
Text: FIG. 3 illustrates the effect of treatment with αGalCer (KRN7000)/CD1d-coated NPs vs uncoated NPs on the CD4/CD8 phenotype of liver (top) and splenic (bottom) iNKT cells (stained with αGalCer (KRN7000)/CD1d tetramers).
FIG. 4 illustrates the effect of treatment with αGalCer (KRN7000)/CD1d-coated NPs vs uncoated NPs on the levels of PD1, CD49d, CD69 and LAG3 in liver iNKT cells (stained with αGalCer (KRN7000)/CD1d tetramers).

liver iNKT cells = experiment: RNA sequencing (RNAseq) of liver iNKT cells sorted from treated vs. untreated NOD.c3c4 mice; format: in vivo, mouse
Procedure: FIG. 5 illustrates normalized RNA expression counts (±SEM) for iNKT-relevant genes in the liver iNKT cells of NOD.c3c4 mice treated with αGalCer (KRN7000)/CD1d-NPs vs. control NOD.c3c4 mice.
To investigate this, RNA sequencing (RNAseq) studies of liver iNKT cells sorted from αGalCer/CD1d-NP-treated vs. untreated NOD.c3c4 mice was performed. […] When considering genes known to be expressed in various iNKT cell subsets (Gapin, L. (2016). “Development of invariant natural killer T cells” Curr. Opin. Immunol. 39, 68-74) including iNKT1 (Zbtb16 (PLZF)-low, Tbx21 (Tbet)+, Gata3−, Rorc (RORgt)−, Foxp3−, Maf−, Cd24−, Cd44+, Klrb1 (NK1.1)+, Ifbg+, IL2−, Il4+, Il17−, Il10−, Il21−, Il2rb (Cd122)+, Mirlet7 (LET-7)+, Znf683 (HOBIT)-high), iNKT2 (Zbtb16-high, Tbx21−, Gata3+, Rorc−, Maf−, Foxp3−, Cd24−, Cd44+, Klrb1−, Ifng−, Il2−, Il4+, Il17−, Il10−, Il21−, Il17rb+, Tnfsf11 (RANKL)+; and iNKT17 (Zbtb16-int, Tbx21−, Gata3−, Rorc+, Foxp3−, Maf-low, Cd24−, Cd44+, Klrb1-low/−, Il2−, il4−, Ifng−, Il17+, Il10−, Il21−, Tgfbr2+, Tnfsf11+), the liver iNKT cells of non-treated NOD.c3c4 mice appeared to be rather unique (Zbtb16+, Tbx21+, Gata3+, Rorc-low, Foxp3−, Maf-low, Cd24-low, Cd44+, Klrb1+, Il2−, Il4-low, Ifng+, Il17−, Il10−, Il21−, Il2rb+, Il17rb-low, Tgfbr2+, Mirlet7−, Znf683−, Tnfsf11−). Remarkably, the liver iNKT cells from treated animals were somewhat similar to the latter, except that they were Rorc−, Maf-high, Il10-high, Il21-high, Il2rb+, Il17rb− and Tgfbr2-low. […] The liver iNKT cells of treated mice were also different from αGalCer-induced NKT10 cells, based on available gene expression data (Il10+, Klrb1-low, Nfil3+ (E4BP4, which regulates IL-10 and IL-13 expression), Nrp1+, Itga4+, Itgae−, Ctla4+, Fr4+, Bcl6−, Il7r+, Slamf6-high, Icos+) (Sag et al., 2014). Unlike these iNKT10 cells, the liver iNKT cells from treated mice were Nfli3−, Nrp1-low, Fr4−, Bcl6-low and Il7r-low. […] These observations were substantiated by comparing the liver iNKT RNAseq data from αGalCer/CD1d-NP-treated and untreated mice to iNKT1, iNKT2, iNKT10 and iNKT17 RNAseq data from Engel et al. (Engel, I., et al. (2016). “Innate-like functions of natural killer T cell subsets result from highly divergent gene programs” Nat. Immunol. 17, 728-739.) (FIG. 6A to 6D)
To ascertain if some of the gene expression differences that were observed between the liver iNKT cells of αGalCer/CD1d-NP-treated and untreated mice were driven, at least in part, by their unique transcriptional factor expression profile, which transcription factors were associated with expression of differentially expressed genes was determined.
Consequently, these αGalCer/CD1d-NP-induced liver iNKT cells are called iNKTR1 cells.

[2] = tested on: CD11b+ APCs from liver-draining LNs and liver Kupffer cells; experiment: Suppression of antigen presentation by APCs by liver iNKT cells from treated mice; format: cell-based, mouse; settings: APCs from untreated mice, FIG. 9
Text: (§1) Next the mechanisms of disease suppression were investigated.

NOD.c3c4.scid mice = experiment: Transfer of disease protection by liver iNKT cells to NOD.c3c4.scid mice reconstituted with diseased splenocytes; format: in vivo, mouse; settings: vs liver iNKT cells from control NOD.c3c4 donors; FIG. 10
Text: as §1

wild-type NOD.c3c4 mice = experiment: Cytokine/cytokine receptor blockade of therapeutic activity in treated NOD.c3c4 mice; format: in vivo, mouse
[3] = tested on: liver iNKT cells, Kupffer cells and B-lymphocytes; experiment: Spinning-disk confocal intravital microscopy of liver in Cxcr6GFP/+ Ifng-Delta-ARE+/- (NOD×B6) F1 mice; format: in vivo, mouse
Text: To get further insights into downstream cellular targets, spinning-disk confocal intravital microscopy was used to track αGalCer/CD1d-NP-induced iNKT cells, Kuppfer cells, and B-lymphocytes in the livers of treated and untreated Ifng-Delta-ARE^+/− (NOD×B6) F1 mice, which also develop spontaneous PBC-like disease. To track iNKT cells in vivo, Cxcr6^GFP/+ mice were used, in which 60-80% of liver eGFP+ cells are iNKT cells, the remainder being NK and T-cells (Geissmann et al., 2005; Liew et al., 2017). In sterile injury in the liver, recognition of endogenous glycolipid ligands on endothelial cells, Kupffer cells and other CD1d-expressing liver cells by iNKT cells result in the conversion of proinflammatory CCR2+ Ly6Chi monocytes into regulatory CX3CR1+ Ly6Clow monocytes, a process that is driven by iNKT-cell-derived IL-4. […] Although there were similar numbers of B-cells in the liver of untreated mice, they […] in interactions with Cxcr6+ cells to the same extent. […] See Lee, W. Y., et al. (2010). “An intravascular immune response to Borrelia burgdorferi involves Kupffer cells and iNKT cells” Nat. Immunol. 11, 295-302.

B-cells = experiment: Breg cell formation from transferred Il10-eGFP B cells in treated NOD.c3c4 mice; format: in vivo, mouse; settings: within 7 days of transfer; B-cells pulsed with αGalCer or not
Text: This was done by transferring αGalCer-pulsed or non-pulsed B cells carrying an eGFP transgene in the Il10 locus into αGalCer/CD1d-NP-treated or untreated NOD.c3c4 mice, and enumerated the frequency of transferred CD5+ and CD1d^high B-cells that acquired eGFP expression within 7 days. […] Thus, αGalCer/CD1d-NP treatment triggers iNKTR1 cell formation which then drive Breg cell formation by recognizing endogenous B-cell antigenic ligand(s) in a CD1d-restricted manner.

[4] = flow cytometry, vs liver iNKT cells of control (untreated or Cys-NP-treated) mice, FIG. 4
[5] = treated NOD.c3c4 mice, not shown
[6] = RNAseq, negative in liver iNKT cells of untreated mice
[7] = RNAseq, treated mice, unlike iNKT10 cells
[8] = RNAseq, treated vs untreated mice

αGalCer/CD1d-NP: nanoparticles coupled to CD1d molecules whose binding groove is loaded with alpha-galactosylceramide (KRN7000)
effect on spontaneous PBC-like disease [1]: profound suppressive effect | CD4/CD8 phenotype of splenic and liver-associated iNKT cells (iNKT cells; at the expense of CD4−CD8− iNKT cells, FIG. 3): enriched for CD4+CD8− iNKTs | CD69 level on iNKT cells (iNKT cells; [4]): significantly higher levels | CD49d level on iNKT cells (iNKT cells; [4]): significantly higher levels | Lag-3 level on iNKT cells (iNKT cells; [4]): significantly higher levels | PD1 level on iNKT cells (iNKT cells; [4]): significantly higher levels | circulating frequency of iNKT cells (iNKT cells; [5]): slight increase | iNKT content in spleen and lymph nodes (liver-draining and not) (iNKT cells; [5]): slight decrease | expression levels of compared genes in induced liver iNKT cells vs TR1 cells (liver iNKT cells; 66 genes, normalized gene counts, FIG. 8): highly similar levels of expression | genes with >4-fold differences in expression compared with TR1 cells (liver iNKT cells; FIG. 8, number of genes): 66 | IL-10 (Il10) expression in liver iNKT cells (liver iNKT cells; RNA, treated vs untreated mice): high upregulation; also recorded: Il10-high; also recorded: several hundred-fold higher levels | IL-21 (Il21) expression in liver iNKT cells (liver iNKT cells; RNA, treated vs untreated mice): Il21-high; also recorded: high upregulation; also recorded: several hundred-fold higher levels | CTLA4 (Ctla4) expression in liver iNKT cells (liver iNKT cells; [6]): high levels; also recorded: high upregulation | Itga4 (CD49d) expression in liver iNKT cells (liver iNKT cells; [6]): high levels | Lag3 expression in liver iNKT cells (liver iNKT cells; [6]): high levels; also recorded: high upregulation | Slamf6 expression in liver iNKT cells (liver iNKT cells; [6]): high levels | Bcl6 expression in liver iNKT cells (liver iNKT cells; RNAseq, treated mice): Bcl6-low; also recorded: low levels | Ccr6 expression in liver iNKT cells (liver iNKT cells; RNAseq, treated mice): significantly downregulated | Il7r expression in liver iNKT cells (liver iNKT cells; RNAseq, treated mice): significantly downregulated; also recorded: Il7r-low | Itgae (CD103) expression in liver iNKT cells (liver iNKT cells; RNAseq, treated mice): significantly downregulated | Nrp1 expression in liver iNKT cells (liver iNKT cells; RNAseq, treated mice): Nrp1-low | Tnfrsf14 (BTLA) expression in liver iNKT cells (liver iNKT cells; RNAseq, treated mice): significantly downregulated | Fr4 expression in liver iNKT cells (liver iNKT cells; [7]): Fr4− | Nfil3 expression in liver iNKT cells (liver iNKT cells; [7]): Nfli3− | Cxcr5 expression in liver iNKT cells (liver iNKT cells; RNAseq, treated mice, unlike iNKT-FH cells): lack expression | Gata3 expression in liver iNKT cells (liver iNKT cells; [8]): significantly upregulated | PD1 expression in liver iNKT cells (liver iNKT cells; [8]): high upregulation | TIGIT expression in liver iNKT cells (liver iNKT cells; [8]): high upregulation | Vdr expression in liver iNKT cells (liver iNKT cells; [8]): significantly upregulated | c-maf (Maf) expression in liver iNKT cells (liver iNKT cells; [8]): high upregulation; also recorded: Maf-high; also recorded: significantly upregulated | Il2rb expression in liver iNKT cells (liver iNKT cells; RNAseq, untreated: Il2rb+): Il2rb+ | Il17rb expression in liver iNKT cells (liver iNKT cells; RNAseq, untreated: Il17rb-low): Il17rb− | Rorc expression in liver iNKT cells (liver iNKT cells; RNAseq, untreated: Rorc-low): Rorc− | Tgfbr2 expression in liver iNKT cells (liver iNKT cells; RNAseq, untreated: Tgfbr2+): Tgfbr2-low | differentially expressed genes shared by the TR1 cells (liver iNKT cells; of 238, comparison of RNA-seq profiles): 91 | differentially expressed genes also upregulated in cognate TR1-like CD4+ T-cells of pMHCII-NP-treated mice (liver iNKT cells; of 238, number of genes): 138 | downregulated genes co-regulated by Maf, Gata3 and Vdr (liver iNKT cells; of the 71 downregulated, FIG. 7): none | upregulated protein-coding genes co-regulated by Maf, Gata3 and Vdr (liver iNKT cells; of the 135 upregulated, FIG. 7): 66 | differentially expressed genes also upregulated in cognate TR1-like CD4+ T-cells of pMHCII-NP-treated mice (liver iNKT cells; share of 238 genes): 58% | number of differentially expressed genes in liver iNKT cells (liver iNKT cells; treated vs untreated mice): 238 | number of downregulated protein-coding genes in liver iNKT cells (liver iNKT cells; treated vs untreated mice): 71 | number of upregulated protein-coding genes in liver iNKT cells (liver iNKT cells; treated vs untreated mice): 135 | suppression of presentation of IGRP206-214 peptide to cognate TCR-transgenic CD8+ T-cells [2]: could suppress | transfer of disease protection by liver iNKT cells from treated mice (NOD.c3c4.scid mice): could transfer disease protection | effect of IL-21R blockade on therapeutic activity (wild-type NOD.c3c4 mice; mouse, in vivo): abrogated | inhibition of therapeutic activity by IFNγ blockade (wild-type NOD.c3c4 mice; wild-type NOD.c3c4 mice): not | inhibition of therapeutic activity by IL-4 blockade (wild-type NOD.c3c4 mice; wild-type NOD.c3c4 mice): to a lesser extent | inhibition of therapeutic activity by IL-10 blockade (wild-type NOD.c3c4 mice; wild-type NOD.c3c4 mice): partially inhibited | B-cell killing through iNKT-B-cell interactions ([3]; 4 days after the last dose): did not appear to result in B-cell killing | interaction of liver iNKT cells with B-cells ([3]; 4 days after the last dose, anti-CD19 labelled B-cells): seeking and engaging | number of liver iNKT cells ([3]; bi-weekly treatment, vs untreated mice): massive increase | motility of liver iNKT cells ([3]; imaged 4 days after the last dose): highly motile | motility of liver iNKT cells ([3]; imaged within 4 hours of a dose): stopped moving | conversion of transferred B-cells into IL-10/eGFP-expressing CD1d-high/CD5+ Breg cells (B-cells): Breg cell formation in treated, but not untreated animals; also recorded: can trigger the conversion
